Reference: article PMC8861431, “Tissue Pharmacokinetic Properties and Bystander Potential of Hypoxia-Activated Prodrug CP-506 by Agent-Based Modelling” (Frontiers in Pharmacology, 2022)
Where “and” joins values, the source holds several entries; their conditions need not be identical. Identical values can stand only once.

Columns and labels:
Format in all cases: cell-based, human
[1] = tested on: PORko-G cell line (POR-knockout HCT-116); test: Monolayer clonogenic assay (with monolayer ABM fit)
Method: (§1) Cells (4.8 x 10^5 cells) were seeded with 2 ml culture medium into 6-well plates and left to attach for 2 h in a humidified 37°C incubator. Compounds were then prepared in culture medium and added in a 500 µl volume to each well. Plates were returned to a humidified 37°C incubator for the duration of the drug exposure (4 h). Aerobic and anoxic experiments were performed as described above. Plates were then removed from the anaerobic chamber and processed alongside the aerobic cultures. Cells were detached from monolayer by trypsinisation and plated at serial dilutions in 6-well plates. Cells were left to grow in a standard 37°C incubator for 10 days until the controls formed discrete colonies comprised of at least 50 cells. Colonies were visualized by staining with methylene blue (2 g/L in 50% aqueous ethanol) for 30 min. The number of colonies with at least 50 cells was manually counted to determine the plating efficiency. The surviving fraction was determined as the ratio of plating efficiency of treated cells to that of the controls.
(§2) An agent-based model (ABM) employing a one-dimensional approximation for monolayers was used to develop a cellular PK model, as described in further detail elsewhere ([Hong et al., 2018b]; [Mao et al., 2018]). The mathematical framework assumes that solute concentrations in the medium are dependent only on the depth (on the z coordinate) and not the lateral position (x,y) so that all cells are exposed to the same concentration of nutrients and drugs within the monolayer culture. Moreover, all cells have the same rate of metabolism and volume growth at any instance with variability allowed in cell volume, rate of cell division and cell death. Monolayer ABM simulations were performed on a desktop Windows PC (Intel core I7 processor) from a Qt (Qt Company, https://www.qt.io/) graphical user interface passing parameters to a DLL built with Fortran95. The monolayer ABM uses a finite difference method to solve reaction-diffusion equations for each compound (N) in the medium and cells. Parameters for the cellular uptake and metabolism were fitted to the concentration-time profiles of CP-506 and its metabolites in monolayer cultures of POR-R cells using a linear (first order) cell transport and metabolism model. Terms for the extracellular instability of CP-506 and its metabolites were set at their respective values in media stability studies, and media diffusion coefficients were estimated from the support membrane diffusion coefficients described below. Experimental data describing the kinetics of CP-506 uptake under aerobic conditions was fitted by adjusting the permeability coefficients kin and kout for each compound. These values were fixed for anoxic experiments to allow for parameter estimation of the rate of intracellular CP-506 metabolism (kmet0) as well as the intracellular/extracellular partitioning ratio (kin and kout) and metabolic instability (kmet0) for its cytotoxic metabolites.
(§3) The spheroid ABM is described in further detail elsewhere ([Hong et al., 2018b]; [Mao et al., 2018]). The model employs two 3D grids and two solvers, a coarse grid represents the culture medium and is embedded with a much finer grid that represents the spheroid in a small cubic region at the bottom of the well. The spheroid grows in a specified volume and depth of unstirred medium containing dissolved oxygen. The geometry of the model is lattice-based, in which cells occupy cubic sites on a regular 3D lattice and grow in volume at a rate dependent on the local oxygen concentration. Autonomous cell mobility and cell-cell forces are not simulated. Cell motion occurs only as a result of cell division. Cells divide when the volume reaches a pre-set value (Vdiv) and the resultant daughter cell occupies an adjacent empty lattice site. […] The oxygen concentration at the air-medium boundary is defined by the gas phase of the culture environment. […]

[2] = tested on: POR-R cell line (POR-overexpressing HCT-116); test: as above; conditions: for k d M: kill probability rate constant in monolayer cultures: fitted by monolayer ABM to clonogenic survival under anoxia, set to zero for the prodrug, same kd assumed for metabolites
Method: as §1, §2, §3

HCT-116 cell line panel = test: Anti-proliferative IC50 assay of authentic CP-506 metabolites; conditions: Homo sapiens, HCT-116, 120 h, read-out: Anti-proliferative IC50 of metabolite
Method: Cells (700–1,000 per well) were seeded with 100 µl culture medium into 96-well plates and left to attach for 2 h in a humidified 37°C incubator. Compounds were prepared in culture medium and serially diluted (1:3) in the well volume. […] Aerobic experiments were performed under standard tissue culture conditions (21% O2), and the anoxic experiments were performed in parallel in a 5% H2/Pd catalyst anaerobic chamber (Shellab Bactron, Sheldon manufacturing Inc., Cornelius, OR) using pre-equilibrated media and plasticware. All anoxia experiments were conducted using a catalyst-scrubbed anaerobic chamber, unless otherwise specified, with gas oxygen measurements of <1 ppm O2. Cells were then washed three times and left to grow for 96 h before cell density determination using a sulforhodamine B (SRB) assay ([Vichai and Kirtikara, 2006]). To this end, the cells were fixed by layering 50 µl of trichloroacetic acid (40% w/v in MilliQ water) on top of the culture media (150 µl) in each well for 1 h at 4°C. Plates were rinsed under running tap water and stained with 50 µl of SRB (0.4% w/v in MilliQ water containing 1% v/v acetic acid) for 30 min at room temperature. Plates were rapidly destained by rinsing three times in tap water containing 1% (v/v) acetic acid. The stain was solubilized by adding 100 µl of 10 mM unbuffered Tris base to each well with gentle rocking for 1 h. Plates were read on a Biotek ELx808 Absorbance Microplate Reader at 490 nm using KC4 software. The IC50 value (concentration required to reduce staining to 50% of the untreated control on the same plate) for each compound was determined by interpolation using a 4-parameter logistic regression model.
FIGURE 3 Hypoxia-dependent metabolism of CP-506 leads to the formation of a multitude of short-lived species with variable cytotoxicity. (A) Bioreductive metabolism of CP-506 under normoxic (21% O2) and anoxic conditions (<1 ppm O2). Concentrations of CP-506 and its metabolites (CP-506H, CP-506M and CP-506M-Cl2) were quantified by mass spectrometry with reference to the appropriate deuterated (D8) internal standard. Values are the mean ± SEM for three independent experiments. (B) Stability of CP-506 metabolites in culture medium (without cells) at 37°C. Concentrations were determined by mass spectrometry using standard curves generated from authenticated stocks. […] IC50 values are the mean ± SEM of duplicate wells for three independent experiments. T-tests were performed using GraphPad Prism 8 (ns, p-value > 0.05; *, p-value ≤ 0.05; **, p-value ≤ 0.01; ***, p-value ≤ 0.001).

[3] = anoxia, estimated from clonogenic survival by ABM

Row | Structure (SMILES) | IC50 ([1]; Homo sapiens, HCT-116, PORko-G monolayer, 4 h exposure, <1 ppm O2, read-out: Clonogenic IC50 under anoxia) [µM] | Target k met0: rate constant for the maximum rate of metabolism in PORko-G cells under anoxia [1, 3] [min⁻¹] | Differential in anoxic sensitivity between PORko-G and POR-R cell lines ([1]; monolayer clonogenic endpoint, anoxia) | IC50 ([2]; Homo sapiens, HCT-116, POR-R monolayer, 4 h exposure, <1 ppm O2, read-out: Clonogenic IC50 under anoxia) [µM] | k d M: kill probability rate constant in monolayer cultures [2] | IC50 (HCT-116 cell line panel) [µM] | Target k met0: rate constant for the maximum rate of metabolism in PORko-G cells under anoxia ([1]; anoxia, footnote d: assumed equivalent to the measured metabolites or from published PR-104A estimates)
1 | CCN1CCN(C(=O)c2cc(N(CCBr)CCOS(C)(=O)=O)c(S(C)(=O)=O)cc2[N+](=O)[O-])CC1 [CP-506, 2-[(2-bromoethyl)-5-[(4-ethyl-1-piperazinyl)carbonyl]-2-(methylsulfonyl)-4-nitroanilino]ethyl methanesulfonate] | 17.1 ± 3.4 | 0.0019 | 22 fold and 20 fold | 0.8 ± 0.3 | 0 | – | –
2 | CCN1CCN(C(=O)c2cc(N(CCBr)CCOS(C)(=O)=O)c(S(C)(=O)=O)cc2NO)CC1 [CP-506H, 2-((2-bromoethyl)(5-(4-ethylpiperazine-1-carbonyl)-4-(hydroxyamino)-2-(methylsulfonyl)phenyl)amino)ethyl methanesulfonate] | – | 0.09 | – | – | 0.01 | < 10 | –
3 | CCN1CCN(C(=O)c2cc(N(CCBr)CCOS(C)(=O)=O)c(S(C)(=O)=O)cc2N)CC1 [CP-506M, 2-((4-amino-5-(4-ethylpiperazine-1-carbonyl)-2-(methylsulfonyl)phenyl)(2-bromoethyl)amino)ethyl methanesulfonate] | – | 0.1 | – | – | 0.01 | < 10 | –
4 | CCN1CCN(C(=O)c2cc(N(CCCl)CCCl)c(S(C)(=O)=O)cc2N)CC1 [CP-506M-Cl2, (2-Amino-5-(bis(2-chloroethyl)amino)-4-(methylsulfonyl)phenyl)(4-ethylpiperazin-1-yl)methanone] | – | – | – | – | 0.01 | < 10 | 0.1 ^d min^−1
